Target: DNA damage-binding protein 1/Protein cereblon (Homo sapiens, UniProt Q96SW2)
Description: The binding potency was determined using H-TRF assay technology (Perkin Elmer). Compounds were serially diluted in DMSO and 0.2 μL volume was transferred to white 384-well plate.

Sequence of DNA damage-binding protein 1/Protein cereblon (Q16531 whole entry): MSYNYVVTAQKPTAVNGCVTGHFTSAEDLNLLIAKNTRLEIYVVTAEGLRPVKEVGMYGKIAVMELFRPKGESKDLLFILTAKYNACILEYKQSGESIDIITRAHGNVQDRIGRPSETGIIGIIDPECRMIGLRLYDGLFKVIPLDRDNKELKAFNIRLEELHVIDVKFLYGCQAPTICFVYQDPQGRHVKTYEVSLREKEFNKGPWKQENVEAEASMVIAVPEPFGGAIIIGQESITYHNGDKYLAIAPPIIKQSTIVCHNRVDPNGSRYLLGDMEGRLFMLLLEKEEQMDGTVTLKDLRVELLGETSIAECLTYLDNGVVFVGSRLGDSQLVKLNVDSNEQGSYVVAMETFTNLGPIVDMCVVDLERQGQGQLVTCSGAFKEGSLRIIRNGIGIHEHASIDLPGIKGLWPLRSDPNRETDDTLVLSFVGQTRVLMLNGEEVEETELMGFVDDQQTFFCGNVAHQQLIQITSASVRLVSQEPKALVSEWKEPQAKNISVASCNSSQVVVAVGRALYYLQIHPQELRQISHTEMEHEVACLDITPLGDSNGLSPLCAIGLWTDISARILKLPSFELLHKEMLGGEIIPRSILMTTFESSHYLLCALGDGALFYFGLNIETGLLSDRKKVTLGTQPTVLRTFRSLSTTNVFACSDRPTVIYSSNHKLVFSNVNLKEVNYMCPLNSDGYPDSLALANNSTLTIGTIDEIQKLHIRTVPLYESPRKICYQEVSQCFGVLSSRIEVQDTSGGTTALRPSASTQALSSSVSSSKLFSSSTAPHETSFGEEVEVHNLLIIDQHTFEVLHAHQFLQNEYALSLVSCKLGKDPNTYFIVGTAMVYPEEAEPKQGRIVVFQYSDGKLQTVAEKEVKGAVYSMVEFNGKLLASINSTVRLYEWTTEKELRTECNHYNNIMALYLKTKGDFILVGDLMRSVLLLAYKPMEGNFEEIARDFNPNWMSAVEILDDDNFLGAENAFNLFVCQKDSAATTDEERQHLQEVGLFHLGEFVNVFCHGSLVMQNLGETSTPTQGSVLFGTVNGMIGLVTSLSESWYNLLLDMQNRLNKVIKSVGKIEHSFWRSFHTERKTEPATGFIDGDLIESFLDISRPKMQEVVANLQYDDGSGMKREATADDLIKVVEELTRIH
Sequence of DNA damage-binding protein 1/Protein cereblon (Q96SW2 whole entry): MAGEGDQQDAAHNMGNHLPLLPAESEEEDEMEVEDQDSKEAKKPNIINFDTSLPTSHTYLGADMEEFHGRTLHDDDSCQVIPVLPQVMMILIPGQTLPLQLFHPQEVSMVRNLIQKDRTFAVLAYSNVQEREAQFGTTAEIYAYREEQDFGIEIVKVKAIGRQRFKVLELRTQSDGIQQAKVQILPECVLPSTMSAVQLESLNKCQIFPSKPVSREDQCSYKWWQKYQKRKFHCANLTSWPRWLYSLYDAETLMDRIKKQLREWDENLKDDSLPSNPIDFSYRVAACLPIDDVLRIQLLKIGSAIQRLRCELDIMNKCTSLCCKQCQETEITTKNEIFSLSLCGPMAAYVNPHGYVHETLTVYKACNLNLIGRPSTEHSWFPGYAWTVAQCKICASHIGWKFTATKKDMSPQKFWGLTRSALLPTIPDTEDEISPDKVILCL

C[C@@H]1Cc2c([nH]c3ccccc23)[C@@H](c2cnc(N3CCC(N4CCN(c5ccc(NC6CCC(=O)NC6=O)cc5F)CC4)CC3)nc2)N1CC(C)(C)F (stereo partly specified) [US20260007681, Compound A2]
IC50: 500 to 5000 nM

— BindingDB's records for patent US20260007681 (University Of Michigan, 2026)
